Holding throughout (assay type): in vivo
The test system of assay [1] is Pulvinaria aethiopicus. As to the kind of experiment: Example 10: mandarin trees treated against Pulvinaria aethiopicus. To be noted: 45 days after last of two treatments, on fruits, % a.i.: mineral oil 0.251 + pyriproxifen 0.003, I-9 0.0096, I-2 0.0144. The procedure: In three replications, about 6-year-old mandarin trees of the cultivar “Naartje” are treated against Pulvinaria aethiopicus. Two applications are carried out at an interval of 32 days as irradication treatment using a knapsack operated with pressurized air. Here, the active compounds Example (I-9) (240 SC) and Example (I-2) (240 SC) are tested against a commercial tank mix of a mineral oil (835 EC) which is commercially available in South Africa and customarily used in this country and pyriproxifen (100 EC) at the stated amounts. The application rate is 8.3 l of water/tree.
Evaluation is carried out 45 days after the last treatment by rating the kill in percent on the fruits.

In assay [2] the test system is Myzus persicae. As to the kind of experiment: Example 50: tomatoes treated against Myzus persicae. To be noted: nymphs on leaves, g a.i./ha: acetamiprid 50, I-9 36, I-4 48. The procedure: In two replications, plots of a size of about 43 m^2 with tomatoes of the cultivar “Yaqui” are treated against Myzus persicae. The application is carried out using a motor-operated knapsack sprayer. Here, the active compounds Example (I-9) (240 SC) and Example (I-4) (240 SC), in a tank mix with 0.1% a.i. of rapeseed oil methyl ester (500 EW), and the standard acetamiprid (20 WP) are applied at the stated application rates. The application rate is 208 l of water/ha.
Evaluation is carried out 3 and 10 days after the treatment by rating the kill of the nymphs on the leaves.

The test system of assay [3] is Pseudaulacaspis prunicola. Kind of assay: Example 23: Japanese apricot trees treated against Pseudaulacaspis prunicola. Conditions: 58 days after treatment, nymphs on shoots, % a.i.: Supracide EC 0.04, I-4 0.0075. The procedure:
In six replications, about 16-year-old Japanese apricot trees of the cultivar “Shirokag” are treated against Pseudaulacaspis prunicola. The application is carried out using a sprayer. Here, the active compound Example (I-4) (200 SC) is tested against the commercial standard Supracide EC (400 EC), at the stated application rates. The application rate is 1500 l of water/ha.
Evaluation is carried out 58 days after the treatment by rating the kill of the nymphs on the shoots.

Assay [4] relates to Quadraspidiotus perniciosus. As to the kind of experiment: Example 17: apple trees treated against San Jose scale louse. Conditions: 43 days after last of two treatments, on shoots, g a.i./ha/m crown height: Dursban 223, I-4 72. The procedure: In three replications, four about 18-year-old apple trees of the cultivar “Red Chief” are treated against the San Jose scale louse Quadraspidiotus perniciosus. Two applications are carried out at an interval of 15 days using a motor-operated barrow-mounted sprayer. Here, the active compound Example (I-4) (240 SC) is applied in a tank mix with 0.2% a.i. of rapeseed oil methyl ester (500 EW) at the stated application rate and the commercial standard Dursban (446 EC) is applied at the stated application rate. The application rate is 1500 l of water/ha.
Evaluation is carried out 43 days after the last treatment by rating the kill on the shoots.

The subject of assay [5] is Bemisia argentifolii. As to the kind of experiment: Example 36: aubergine plants (Ryoma) treated against Bemisia argentifolii. To be noted: nymphs on leaves, % a.i.: pymetrozine 0.0125, I-4 0.072, I-8 0.06. The method, then:
In three replications, in each case four aubergine plants of the cultivar “Ryoma” are treated against Bemisia argentifolii. The application is carried out using a motor-operated knapsack sprayer. Here, the active compounds Example (I-4) and Example (I-8), in a tank mix with 0.2% a.i. of rapeseed oil methyl ester (500 EW), and the commercial standard pymetrozine (25 WP) are tested at the stated application rates. The application rate is 3200 l of water/ha.
Evaluation is carried out 13, 20 and 27 days after the treatment by rating the kill of the nymphs on the leaves.

Assay [6] relates to Psylla piri. Kind of assay: Example 5: pear trees treated against Psylla piri. To be noted: nymphs on shoots, g a.i./ha/m crown height: amitraz 266, I-4 72. The method, then:
In three replications, pear trees of the cultivar “Williams Christ” are treated against Psylla piri. Application is shortly before the eggs hatch. The application is carried out using a barrow-mounted sprayer operated with pressurized air. Here, the active compound Example (I-4) (240 SC) is tested in a tank mix with 0.1% a.i. rapeseed oil methyl ester (500 EW) at the stated amount against the standard amitraz (200 EC) at the stated amount. The application rate is 1000 l of water/ha.
Evaluation is carried out 7, 14 and 21 days after the treatment by rating the kill of the nymphs on the shoots.

For assay [7], the system named is Dysmicoccus brevipes. Kind of assay: Example 30: pineapple plants treated against Dysmicoccus brevipes. To be noted: nymphs on pineapple plants, g a.i./ha: Confidor OD 140, I-4 75. The procedure:
In five replications, pineapple plants of the cultivar “MD2” of a height of about 35 cm are treated against Dysmicoccus brevipes. The application is carried out using a motor-operated knapsack sprayer. Here, the active compound Example (I-4) (150 OD) is tested against the commercial standard Confidor OD (240 OD), at the stated application rates. The application rate is 4000 l of water/ha. Both active compounds are sprayed as a tank mix with 500 g of a.i./ha of adjuvant NP-7 and 4 l of a.i./ha of mineral oil.
Evaluation is carried out 9, 23 and 37 days after the treatment by rating the kill of the nymphs on the plants.

Assay [8] concerns Myzus persicae. As to the kind of experiment: Example 48: aubergine plants treated against Myzus persicae. Conditions: on leaves, rate (g of a.i./ha): pymethrozine 0.0125, I-4 0.024. The method, then: In three replications, four aubergine plants (age about 7 months) of the cultivar “Hayabusa” are treated against Myzus persicae. The application is carried out using a motor-operated knapsack sprayer. Here, the active compound Example (I-4) (240 SC), in a tank mix with 0.1% a.i. of rapeseed oil methyl ester (500 EW), and the commercial standard pymethrozine (25 WP) are tested at the stated application rates. The application rate is 3000 l of water/ha.
Evaluation is carried out 7, 14, 21 and 29 days after the treatment by rating the kill of the animals on the leaves.

Consider `CCOC(=O)OC1=C(c2cc(C)ccc2Br)C(=O)NC12CCC(OC)CC2` (stereo not drawn) [Example (I-2)], for which the “Kill (%)” value in assay [1] was 72%.
In the case of `CCOC(=O)OC1=C(c2cc(C)ccc2C)C(=O)NC12CCC(OC)CC2` (stereo not drawn) [Example (I-4)], in assay [2] (3 d after treatment), the “Kill (%) 3 d” value turned out to be 92.6%. For the same compound, in assay [2] (10 d after treatment), the “Kill (%) 10 d” value was found to be 95.9%. Further, the “Kill (%) 58 days” value in assay [3] stood at 92.3%. In addition, in assay [4], the “Kill (%)” value amounted to 90.4%. The “Kill (%) 13 d” value in assay [5] (13 d after treatment) is listed as 99.6%. For the same compound, in assay [5] (20 d after treatment), the “Kill (%) 20 d” value came out at 100%. Further, the “Kill (%) 27 d” value in assay [5] (27 d after treatment) was determined as 97%. Moreover, the “Kill (%) 7 d” value in assay [6] (7 d after treatment) is reported as 100%; in assay [8] (7 d after treatment), 99.7%. Moreover, the “Kill (%) 14 d” value in assay [6] (14 d after treatment) is 100%; in assay [8] (14 d after treatment) it was 99.7%. For the same compound, the “Kill (%) 21 d” value came out at 100% in assay [6] (21 d after treatment) and 98% in assay [8] (21 d after treatment). In addition, the “Kill (%) 9 days” value in assay [7] (9 days after treatment) turned out to be 80.9%. The “Kill (%) 23 days” value in assay [7] (23 days after treatment) was found to be 84.0%. Further, in assay [7] (37 days after treatment), the “Kill (%) 37 days” value turned out to be 91.3%. Moreover, in assay [8] (29 d after treatment), the “Kill (%) 29 d” value was determined as 97%.

The values above are taken from patent publication US20090012152A1, “Use of Tetramic Acid Derivatives for Controlling Insects from the Genus of the Plane Lice (Sternorrhyncha)” (Bayer CropScience Aktiengesellschaft, priority 2005, published 2009).
